Reference: article PMC10447463, “Data-mining unveils structure–property–activity correlation of viral infectivity enhancing self-assembling peptides” (Nature Communications, 2023)
Read-outs that look alike come from different tables or passages of the source.

Key:
[1] = system: HIV-1 infection of TZM-bl cells; assay: HIV-1 infectivity enhancement assay, β-galactosidase luminescence; assay type: cell-based; conditions: for Rel-EFC: infection relative to EF-C (QCKIKQIINMWQ = 1); for Log10 Infection Rel EFC: log10 of infection relative to EF-C; for Log Infectivity: Log10 infection relative to EF-C, TZM-bl cells, asymmetric std dev errors; for Log10 Infection Rel EF-C: HIV-1 infection of TZM-bl cells
[2] = assay type: physicochemical; conditions: for ThT Cat. / ThT-Fluorescence (categorical): ThT-active if fluorescence at least twice the control
Method in brief: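 Preformed peptide fibrils (1 mg/mL) mixed with 50 µM ThT in PBS, 15 min at RT, fluorescence ex 440/em 488 nm versus PBS blank, triplicates. Zeta potential: peptides at 1 mg/mL in PBS pH 7.4, aged 1 d at RT, diluted in 1 mM KCl, Smoluchowski from electrophoretic mobility.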

[3] = Conversion rate (CR) assay with fluorescamine; assay type: physicochemical; parameters: key to CR: % = 100−100×filtrate/original fluorescence intensity
Protocol: For ATR FT–IR spectroscopy measurements, 200 µL of the respective 1 mg/mL PNF solution was lyophilized and the resulting powder used for measurement. All spectra were recorded on a Bruker Tensor 27 spectrometer with a diamond crystal as ATR element (PIKE MiracleTM, spectral resolution 2 cm^-1). Every sample was measured with 64 scans. Data were analyzed with OriginLab software and calculation of β–sheet content was conducted according to a previous report. TEM. For TEM measurements 5 µL of PNF fibrils (1 mg/mL) were placed on copper grids coated with carbon and formvar layer (300 mesh, Plano GmbH). After 10 min incubation time, the grids were staining with 4% uranyl acetate solution for 2.5 min and washed with water. Measurements were performed on a Jeol 1400 electron microscope with 120 kV acceleration voltage. CR Assay. For the determination of the amount of peptide monomer converting into nanostructures the amine reactive dye fluorescamine was used analogous to a previous reported protocol. Briefly, 100 µL of the preformed PNF solution was centrifuged in a Vivaspin 500 tube (3 kDa MWCO) to separate fibers from free peptide monomer (16200 x g, 4 °C, 45 min). The filtrate and 100 μL of the non-filtered PNF sample were lyophilized and dissolved in 30 μL DMSO. 10 μL of the filtrate and non-filtered DMSO samples were submitted in a black UV Star® 384 microliter well–plates (Greiner bio–one) and 3 μL of the fluorescamine solution (10 mg/mL, DMSO) was added to measure the fluorescence enhancement. After 20 min of incubation at RT, fluorescence was recorded on an Infinite® M1000 PRO microplate reader (Tecan) at λem = 470 nm upon excitation at λex = 365 nm with 10 nm bandwidths and multiple reads per well (3×3). Measurements were repeated in triplicates and averaged with standard deviation. All values were calculated as n-fold fluorescence enhancement (DMSO only as a reference was set to 1). The conversion rate CR was defined according to the equation Eq. (3).3 CR=100−100×fluorescenceintensityfiltrate/fluorescenceintensityoriginal[%]

[4] = Fig. S7 panel A (plotted against β-sheet content)
[5] = Fig. S7 panel B (plotted against CR), rounded to two decimals
[6] = Log10 of infection rate relative to EF-C, Figure 3A source data
[7] = infection rate relative to EF-C, log10, data of Figure 2D
[8] = infection rate relative to EF-C, log10, source data of Figure 2C
[9] = ThT fluorescence category, 1 if Rel. ThT >2
[10] = Fig. S7 panel B, conversion rate, fluorescamine assay
[11] = conversion rate, fluorescamine assay

Substance | Rel-EFC ([1]; 1.3 µM peptide) | Log10 Infection Rel EFC ([1]; 1.3 µM peptide) | Log Infectivity [1, 4] | Log Infectivity [1, 5] | Log10 Infection Rel EF-C [1, 6] | Log10 Infection Rel EF-C [1, 7] | Log10 Infection Rel EF-C [1, 8] | Tht category (> 2 to blank = +) ([2]; Fig S10 panel D) | ThT Cat. ([2]; Fig S10 panel E) | Tht category (> 2 to blank = +) ([2]; FigS12 panel A) | ThT Cat, ([2]; FigS12 panel B) | ThT Cat, ([2]; ThT category, 1 if Rel. ThT >2) | ThT Cat. [2, 9] | ThT Cat. / ThT-Fluorescence (categorical) [2] | CR / % [3, 10] [%] | CR [3, 11] | further results
CEIEIQINM | 0,07 | -1,19 | -1.186 | -1.19 | -1.19 | -1.186 | -1.186 | 1 (ThT. Cat is 1, if Rel. ThT >2) | 1 (ThT. Cat is 1, if Rel. ThT >2) | 1 (ThT. Cat is 1, if Rel. ThT >2) | 1 (ThT. Cat is 1, if Rel. ThT >2) | 1 (ThT. Cat is 1, if Rel. ThT >2) | 1 (ThT. Cat is 1, if Rel. ThT >2) | 1 (ThT. Cat is 1, if Rel. ThT >2) | 43 | 43 | 
CEIEIQINMWQ | 0,22 | -0,66 | -0.6602 | -0.66 | -0.66 | -0.6602 | -0.6602 | 1 (ThT. Cat is 1, if Rel. ThT >2) | 1 (ThT. Cat is 1, if Rel. ThT >2) |  |  | 1 (ThT. Cat is 1, if Rel. ThT >2) | 1 (ThT. Cat is 1, if Rel. ThT >2) | 1 (ThT. Cat is 1, if Rel. ThT >2) | 67 | 66.95 | Log10 of Rel to EFC (Feb2021) ([1]; Log10 of infection relative to EF-C, all peptides of FigS16): -0.66
CKAKAQA | 0,03 | -1,5 | -1.501 | -1.5 | -1.5 | -1.501 | -1.501 | 0 (ThT-inactive (N-Fold <2)) | 0 (ThT-inactive (N-Fold <2)) | 0 (ThT-inactive (N-Fold <2)) | 0 (ThT-inactive (N-Fold <2)) | 0 (ThT-inactive (N-Fold <2)) | 0 (ThT-inactive (N-Fold <2)) | 0 (ThT-inactive (N-Fold <2)) | 44 | 44 | 
CKAKAQANM | 0,03 | -1,5 | -1.504 | -1.5 | -1.5 | -1.504 | -1.504 | 0 (ThT-inactive (N-Fold <2)) | 0 (ThT-inactive (N-Fold <2)) | 0 (ThT-inactive (N-Fold <2)) | 0 (ThT-inactive (N-Fold <2)) | 0 (ThT-inactive (N-Fold <2)) |  | 0 (ThT-inactive (N-Fold <2)) | 47.9 | 47.87 | Inf. rel. EF-C ([1]; HIV-1 infection relative to EF-C, Fig 23 plot, panels A and B, mean of 3 values): 0.01839; Inf. rel. EF-C ([1]; HIV-1 infection relative to EF-C, Fig 23 plot, single data point, replicate 1): 0.01398; Inf. rel. EF-C ([1]; HIV-1 infection relative to EF-C, Fig 23 plot, single data point, replicate 2): 0.02152; Inf. rel. EF-C ([1]; HIV-1 infection relative to EF-C, Fig 23 plot, single data point, replicate 3): 0.01966; Abs. Inf. / RLU s-1 ([1]; absolute infection rate, peptide 1.3 µM on cells, virus preincubated 10 min with fibrils, read 3 days post infection, mean of triplicate): 430 RLU s-1; Abs. Inf. ([1]; absolute infection signal, HIV-1 on TZM-bl cells, β-galactosidase luminescence): 430; Log10 Inf. rel. to EF-C ([1]; log10 of HIV-1 infection of TZM-bl cells relative to EF-C (EF-C = 0)): -1.504; Inf. rel. EF-C ([1]; n-fold infection vs virus only, relative to that of EF-C, 1.3 µM peptide): 0.03; ThT Cat. ([2]; ThT category, 1 if Rel. ThT >2): 0 (ThT-inactive (N-Fold <2)); Rel. ThT ([2]; n-fold ThT fluorescence vs control (PBS, 10% DMSO), 4 µL 1 mg/mL fibrils + 20 µL 50 µM ThT, 15 min RT, ex 440 / em 488 nm, triplicate): 1.2; CR / % ([3]; conversion of monomer to nanostructures, 3 kDa MWCO filtration, fluorescamine, ex 365 / em 470 nm, triplicate): 48%
